These results are taken from patent publication US9434739B2, “Systemic insecticide” (priority 2007, dated 2016).

One assay relates to Aphis gossypii. Briefly: Soil drenching with single agent and admixture on cucumber against Aphis gossypii (Test Example 8). Conditions: for Preventive value: 2 days after release. It is filed as in vivo. On the procedure: Cucumber seedlings were treated by soil drenching with a single agent and an admixture adjusted to a predetermined concentration with water. The chemical was absorbed through the root for two days, and four adults of Aphis gossypii for each seedling were released on the seedlings. Thereafter, the seedlings were allowed to stand in a thermostatic chamber of 25° C. 2 days after the release, the number of parasites on the leaves was observed. The density index in each treated plot was determined by presuming the density in the non-treated plot to be 100. The preventive value was calculated by the following equation. Preventive value=100−density index
(§1) When the density index exceeded 100, the preventive value was regarded as 0 (zero).
(§2) Theoretical value=A+B−(A×B)/100 Colby's formula
(§3) where A: preventive value when treatment was performed only with compound 4, and
B: preventive value when treatment was performed only with each of acephate and imidacloprid.
When the numerical value for the admixture in Table 10 exceeded the theoretical value calculated by the Colby's formula shown in Table 11, the admixture was determined to have a synergistic effect.

In assay [1] the test system is Rhopalosiphum padi. Briefly: Root soaking with single agent and admixture on wheat against Rhopalosiphum padi (Test Example 9). Format: in vivo. Conditions: for Preventive value: six days after release. On the procedure: The root of wheat seedlings 48 hr after seeding was soaked for 72 hr in an admixture solution, adjusted to a predetermined concentration, as a 10% aqueous acetone solution. 72 hrs after the treatment, 10 larval Rhopalosiphum padi for each seedling were released on the seedlings. Thereafter, the seedlings were allowed to stand in a thermostatic chamber of 25° C. The number of parasites on stems and leaves was observed six days after the release. The density index of each of the treated plots was determined by presuming the density of the non-treated plots to be 100, and the preventive value was calculated by the same equation as in Test Example 8.
as §1, §2, §3
B: preventive value when treatment was performed only with each of acetamiprid, acephate, and imidacloprid.
When the preventive value against Rhopalosiphum padi for the admixture in Table 12 exceeded the theoretical value calculated by the Colby's formula shown in Table 13, the admixture was determined to have a synergistic effect.

The subject of a further assay is Tenebrio molitor. Conditions: described in WO 2004/060065 and Applied and Environmental Microbiology (1995), 61(12), 4429-35; cited from earlier work.
The next assay concerns Plutella xylostella. Conditions: described in WO 2004/060065 and Applied and Environmental Microbiology (1995), 61(12), 4429-35; cited from earlier work.
The test system of the next assay is Helicoverpa armiger. Conditions: described in WO 2004/060065 and Applied and Environmental Microbiology (1995), 61(12), 4429-35; cited from earlier work.
In assay [2] the test system is Trialeurodes uaporariorum. Briefly: Soil drenching treatment test on cucumber against Trialeurodes uaporariorum (Test Example 5). It is filed as in vivo. Conditions: soil drenching of cucumber pot, 0.5 mg/seedling, larvae, 9 days after drenching. On the procedure: Adults of Trialeurodes uaporariorum were released on cucumber seedlings, grown in a pot, for egg laying purposes for two days. 10 days after the start of egg laying, it was confirmed that larvae were hatched from the delivered eggs. The soil in the cucumber pot was drenched with 5 mL of a test solution adjusted to a predetermined concentration with a 10% aqueous acetone solution. The cucumber pot was allowed to stand in a thermostatic chamber of 25° C. (light period 16 hr-dark period 8 hr). 9 days after the drenching, the number of survived larvae was measured, and the mortality of larvae was calculated by the following equation. The test was duplicated. Mortality (%)={(number of larvae before treatment−number of survived larvae)/number of larvae before treatment}×100

For a further assay, the system named is Myzus persicae Sulzer. Briefly: Reference Test: cabbage leaf disk spraying treatment against Myzus persicae Sulzer. Format: in vivo. Conditions: 20 ppm test solution spread over cabbage leaf disk, first instar larvae, three days after release, 25° C. An excerpt:
A leaf disk having a diameter of 2.8 cm was cut out from a cabbage grown in a pot and was placed in a 5.0 cm-Schale. Four adult aphids of Myzus persicae Sulzer were released in the Schale. One day after the release of the adult aphids, the adult aphids were removed. The number of larvae at the first instar born in the leaf disk was adjusted to 10, and 20 ppm of a test solution which had been prepared as a 50% aqueous acetone solution (0.05% Tween 20 added) was spread over the cabbage leaf disk. The cabbage leaf disk was then air dried. Thereafter, the Schale was lidded and was allowed to stand in a thermostatic chamber of 25° C. […] Mortality (%)={number of dead larvae/(number of survived larvae+number of dead larvae)}×100

For the next assay, the system named is Nephotettix cincticeps. Briefly: Soil drenching treatment test on rice seedlings against Nephotettix cincticeps (Test Example 7). Format: in vivo. Conditions: soil drenching of rice pot, 1.0 mg/seedling, second instar larvae, 3 days after release. On the procedure:
Rice seedlings grown in a pot were provided. Soil in the pot was drenched with a test solution adjusted to a predetermined concentration with a 10% aqueous acetone solution. After standing for three days, 10 larvae at the second instar were released on the rice seedling. Thereafter, the pot was allowed to stand in a thermostatic chamber of 25° C. (light period 16 hr-dark period 8 hr). 3 days after the release, the number of survived larvae was measured, and the mortality of larvae was calculated by the same equation as in the Reference Test. The test was duplicated.

For assay [3], the system named is Rhopalosiphum padi. Description: Root soaking treatment test on wheat seedlings against Rhopalosiphum padi (Test Example 3 and Comparative Tests). Format: in vivo. Conditions: wheat seedling root soaked 72 hr in test solution (100 ppm), 20 μg/seedling, 25° C. On the procedure:
The root of wheat seedlings 48 hr after seeding was soaked for 72 hr in a test solution (100 ppm) prepared as a 10% aqueous acetone solution. 72 hrs after the treatment, 10 larval Rhopalosiphum padi were released for each seedling. Thereafter, the seedlings were allowed to stand in a thermostatic chamber of 25° C. The number of parasites on stems and leaves was observed six days after the release, and the density index was calculated by the same equation as in Test Example 1. The test was duplicated.
For compounds 8 and 9 described in Table 6, a insecticidal effect against Rhopalosiphum padi was examined in the same manner as in Test Example 3.

A further assay deals with Laodelphax stratella. Briefly: Soil drenching treatment test on rice seedlings against Laodelphax stratella (Test Example 6). Format: in vivo. Conditions: soil drenching of rice pot, 0.5 mg/seedling, second instar larvae, 3 days after release. The method, then:
Rice seedlings grown in a pot were provided. Soil in the pot was drenched with a test solution adjusted to a predetermined concentration with a 10% aqueous acetone solution. After standing for three days, 10 larvae at the second instar were released on the rice seedlings. Thereafter, the pot was allowed to stand in a thermostatic chamber of 25° C. (light period 16 hr-dark period 8 hr). 3 days after the release, the number of survived larvae was measured, and the mortality of larvae was calculated by the same equation as in the Reference Test. The test was duplicated.

Where [4] appears, read: Compound 4 0 mg/seedling, acephate 0.1 mg/seedling, imidacloprid 0.005 mg/seedling.
[5] abbreviates: Compound 4 0 mg/seedling, other insecticide alone (acephate 0.1 mg/seedling, imidacloprid 0.005 mg/seedling).
Where [6] appears, read: Compound 4 0 μg/seedling, acetamiprid 0.0078, acephate 0.5, imidacloprid 0.0078 μg/seedling.
Where [7] appears, read: Compound 4 0 μg/seedling, other insecticide alone (acetamiprid 0.0078, acephate 0.5, imidacloprid 0.0078 μg/seedling).
[8] abbreviates: Compound 4 0.05 mg/seedling, alone (—) or with acephate 0.1 mg/seedling or imidacloprid 0.005 mg/seedling.
[9] abbreviates: Compound 4 0.5 μg/seedling, alone (—) or with acetamiprid 0.0078, acephate 0.5 or imidacloprid 0.0078 μg/seedling.

As to `O=[N+]([O-])NC1=NCCN1Cc1ccc(Cl)nc1` [Imidacloprid, imidacloprid], the “Theoretical value calculated by Colby's formula” value (“Theoretical value calculated” below) was 16 in the assay with Aphis gossypii (setting [4]) and 28.6 in the assay with Rhopalosiphum padi [1] (setting [6]). The figures for the Preventive value in the assay on Aphis gossypii (setting [5]) and with Rhopalosiphum padi [1] (setting [7]) were 16 and 28.6, respectively.
With `C/C(=N\C#N)N(C)Cc1ccc(Cl)nc1` [Acetamiprid, acetamiprid], the “Theoretical value calculated” value in the assay with Rhopalosiphum padi [1] (setting [6]) was 5.9. For the same compound, the Preventive value in the assay with Rhopalosiphum padi [1] (setting [7]) was found to be 5.9.
As to pyripyropene A, the insecticidal effect result in the assay with Tenebrio molitor, with Plutella xylostella and in the assay on Helicoverpa armiger was “has insecticidal effect” throughout.
`COP(=O)(NC(C)=O)SC` (centres unmarked) [Acephate, acephate]: the figures for the “Theoretical value calculated” value in the assay on Aphis gossypii (setting [4]) and in the assay on Rhopalosiphum padi [1] (setting [6]) were 70 and 55.6, respectively. Further, the Preventive value in the assay with Aphis gossypii (setting [5]) is 70; in the assay with Rhopalosiphum padi [1] (setting [7]) it was 55.6.
With `CC1(COC(=O)C2CC2)C2C[C@H](O)[C@@]3(C)Oc4cc(-c5cccnc5)oc(=O)c4[C@H](O)C3[C@@]2(C)CC[C@@H]1OC(=O)C1CC1` (some centres unmarked) [Compound 4], the results for the “Mortality (%)” value (in [2]; in the assay on Nephotettix cincticeps; in the assay with Laodelphax stratella) were 67%, 60% and 34%, respectively. The “Theoretical value calculated” value in the assay on Aphis gossypii (setting [8]) and in the assay with Rhopalosiphum padi [1] (setting [9]) was 0 throughout. Besides, the Preventive value with Aphis gossypii (setting [8]) and in the assay on Rhopalosiphum padi [1] (setting [9]) was 0 each time. Also, the Mortality in the assay on Myzus persicae Sulzer was 100%. The “Density index 6 days after release” value in the assay with Rhopalosiphum padi [3] is 5.
For `CC1(COC(=O)C2CC2)C2CC(=O)[C@@]3(C)Oc4cc(-c5cccnc5)oc(=O)c4[C@H](O)C3[C@@]2(C)CC[C@@H]1OC(=O)C1CC1` (some centres unmarked) [Compound 6], the Mortality with Myzus persicae Sulzer is on record as 100%. In addition, the “Density index 6 days after release” value in the assay with Rhopalosiphum padi [3] was 0.
The like results for `CC1(COC(=O)C2CC2)C2CC[C@@]3(C)Oc4cc(-c5cccnc5)oc(=O)c4[C@H](O)C3[C@@]2(C)CC[C@@H]1OC(=O)C1CC1` (some centres unmarked) [Compound 7] were, in that order, 100% and 41.
